In this experiment the test system is HCT116 colorectal cancer cells. The experiment can be described thus: Cisplatin sensitization assay (96 h cell viability MTS).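 Also: Test-compound concentration that lowers the Cisplatin IC50 by a set fold.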 The format is cell-based. Conditions: compound and Cisplatin added simultaneously, Cisplatin sensitization value. The method, then:
Compounds can be screened for their ability to sensitize HCT116 colorectal cancer cells to Cisplatin using a 96 h cell viability (MTS) assay. […] Compounds and Cisplatin are then both added simultaneously to the cell media in 2-fold serial dilutions from a top final concentration of 10 μM as a full matrix of concentrations in a final cell volume of 200 μl, and the cells are then incubated at 37° C. in 5% CO2. After 96 h, 40 μl of MTS reagent (Promega G358a) is added to each well and the cells are incubated for 1 h at 37° C. in 5% CO2.
Compounds with a Cisplatin sensitization value of <0.02 μM are marked with “+++.” Compounds with a Cisplatin sensitization value>0.02 μM but <0.2 μM are marked with “++.” Compounds with a Cisplatin sensitization value>0.2 μM but <5 μM are marked with “+.”
In the case of `Nc1nn2cc(F)cnc2c1C(=O)Nc1cnccc1OC1CN2CCC1CC2` (racemic) [I-O-6, (R,S)-2-amino-6-fluoro-N-(4-(quinuclidin-3-yloxy)pyridin-3-yl)pyrazolo[1,5-a]pyrimidine-3-carboxamide], the “Cisplatin Sensitization Assay” value was “+++ (Cisplatin sensitization value of <0.02 μM)”.

As to `Nc1nn2cc(F)cnc2c1C(=O)Nc1cncc(F)c1C1CCN(C2COC2)CC1` [I-C-13, 2-amino-6-fluoro-N-(5-fluoro-4-(1-(oxetan-3-yl)piperidin-4-yl)pyridin-3-yl)pyrazolo[1,5-a]pyrimidine-3-carboxamide], the “Cisplatin Sensitization Assay” value is reported as “++ (Cisplatin sensitization value>0.02 μM but <0.2 μM)”. For the compound `CN1CCC(C(=O)N2CC=C(c3c(F)cncc3NC(=O)c3c(N)nn4cc(F)cnc34)CC2)CC1` [I-C-38, 2-amino-6-fluoro-N-(5-fluoro-1′-(1-methylpiperidine-4-carbonyl)-1′,2′,3′,6′-tetrahydro-[4,4′-bipyridin]-3-yl)pyrazolo[1,5-a]pyrimidine-3-carboxamide], the “Cisplatin Sensitization Assay” value is recorded as “++ (Cisplatin sensitization value>0.02 μM but <0.2 μM)”. The result for `Nc1nn2cc(F)cnc2c1C(=O)Nc1cncc(Cl)c1N1CCC(C(=O)N2CCNCC2)CC1` [I-G-48, 2-amino-N-(5-chloro-4-(4-(piperazine-1-carbonyl)piperidin-1-yl)pyridin-3-yl)-6-fluoropyrazolo[1,5-a]pyrimidine-3-carboxamide] reads “+++ (Cisplatin sensitization value of <0.02 μM)”; that for `Nc1nn2cc(F)cnc2c1C(=O)Nc1cnccc1N1CCN(C2CC2)CC1` [I-N-33, 2-amino-N-(4-(4-cyclopropylpiperazin-1-yl)pyridin-3-yl)-6-fluoropyrazolo[1,5-a]pyrimidine-3-carboxamide], “+ (Cisplatin sensitization value>0.2 μM but <5 μM)”; that for `Nc1nn2cc(Cl)cnc2c1C(=O)Nc1cnccc1OCCO` [I-O-66, 2-amino-6-chloro-N-(4-(2-hydroxyethoxy)pyridin-3-yl)pyrazolo[1,5-a]pyrimidine-3-carboxamide], “+ (Cisplatin sensitization value>0.2 μM but <5 μM)”. Then `CN(C)CC(=O)N1CCN(c2c(F)cncc2NC(=O)c2c(N)nn3cc(F)cnc23)CC1` [I-N-153, 2-amino-N-(4-(4-(2-(dimethylamino)acetyl)piperazin-1-yl)-5-fluoropyridin-3-yl)-6-fluoropyrazolo[1,5-a]pyrimidine-3-carboxamide], with “++ (Cisplatin sensitization value>0.02 μM but <0.2 μM)”; and `CC1(C)CN(C(=O)C2CCN(c3c(F)cncc3NC(=O)c3c(N)nn4cc(F)cnc34)CC2)CCN1` [I-G-27, 2-amino-N-(4-(4-(3,3-dimethylpiperazine-1-carbonyl)piperidin-1-yl)-5-fluoropyridin-3-yl)-6-fluoropyrazolo[1,5-a]pyrimidine-3-carboxamide], with “++ (Cisplatin sensitization value>0.02 μM but <0.2 μM)”; and `Cc1ccncc1NC(=O)c1c(N)nn2cc(F)cnc12` [I-C-4, 2-amino-6-fluoro-N-(4-methylpyridin-3-yl)pyrazolo[1,5-a]pyrimidine-3-carboxamide], with “++ (Cisplatin sensitization value>0.02 μM but <0.2 μM)”.

Turning to `CN1CCN2CCN(c3ccncc3NC(=O)c3c(N)nn4cc(F)cnc34)CC2C1=O` (stereo not drawn) [I-N-233, 2-amino-6-fluoro-N-(4-(8-methyl-9-oxohexahydro-1H-pyrazino[1,2-a]pyrazin-2(6H)-yl)pyridin-3-yl)pyrazolo[1,5-a]pyrimidine-3-carboxamide], the “Cisplatin Sensitization Assay” value was “++ (Cisplatin sensitization value>0.02 μM but <0.2 μM)”.

Take `Nc1nn2cc(F)cnc2c1C(=O)Nc1cncc(F)c1N1CCN2CCOC[C@@H]2C1` [I-N-137, (S)-2-amino-6-fluoro-N-(5-fluoro-4-(hexahydropyrazino[2,1-c][1,4]oxazin-8(1H)-yl)pyridin-3-yl)pyrazolo[1,5-a]pyrimidine-3-carboxamide]: the “Cisplatin Sensitization Assay” value is given as “++ (Cisplatin sensitization value>0.02 μM but <0.2 μM)”. For the compound `CS(=O)(=O)CC1CCN(c2ccncc2NC(=O)c2c(N)nn3cc(F)cnc23)CC1` [I-N-215, 2-amino-6-fluoro-N-(4-(4-((methylsulfonyl)methyl)piperidin-1-yl)pyridin-3-yl)pyrazolo[1,5-a]pyrimidine-3-carboxamide], the “Cisplatin Sensitization Assay” value was “+++ (Cisplatin sensitization value of <0.02 μM)”.

As to `CCN1CCN(c2ccncc2NC(=O)c2c(N)nn3cc(F)cnc23)CC1` [I-N-17, 2-amino-N-(4-(4-ethylpiperazin-1-yl)pyridin-3-yl)-6-fluoropyrazolo[1,5-a]pyrimidine-3-carboxamide], the “Cisplatin Sensitization Assay” value is “+++ (Cisplatin sensitization value of <0.02 μM)”. The result for `CN1CC(NC(=O)C2CCN(c3c(F)cncc3NC(=O)c3c(N)nn4cc(F)cnc34)CC2)C1` [I-G-23, 2-amino-6-fluoro-N-(5-fluoro-4-(4-((1-methylazetidin-3-yl)carbamoyl)piperidin-1-yl)pyridin-3-yl)pyrazolo[1,5-a]pyrimidine-3-carboxamide] reads “+++ (Cisplatin sensitization value of <0.02 μM)”; that for `CC(C)N1CCN(c2ccncc2NC(=O)c2c(N)nn3cc(Cl)cnc23)CC1` [I-N-39, 2-amino-6-chloro-N-(4-(4-isopropylpiperazin-1-yl)pyridin-3-yl)pyrazolo[1,5-a]pyrimidine-3-carboxamide], “++ (Cisplatin sensitization value>0.02 μM but <0.2 μM)”. Turning to `CO[C@@H]1CCN(C(=O)C2CCN(c3ccncc3NC(=O)c3c(N)nn4cc(F)cnc34)CC2)C1` [I-G-93, (R)-2-amino-6-fluoro-N-(4-(4-(3-methoxypyrrolidine-1-carbonyl)piperidin-1-yl)pyridin-3-yl)pyrazolo[1,5-a]pyrimidine-3-carboxamide], the “Cisplatin Sensitization Assay” value is “+++ (Cisplatin sensitization value of <0.02 μM)”.

As for `Cc1nccn1-c1ccncc1NC(=O)c1c(N)nn2cc(F)cnc12` [I-N-28, 2-amino-6-fluoro-N-(4-(2-methyl-1H-imidazol-1-yl)pyridin-3-yl)pyrazolo[1,5-a]pyrimidine-3-carboxamide], the “Cisplatin Sensitization Assay” value is “+++ (Cisplatin sensitization value of <0.02 μM)”. Then `Nc1nn2cc(F)cnc2c1C(=O)Nc1cncc(F)c1N1CCC(C(=O)N2CC3(COC3)C2)CC1` [I-G-14, N-(4-(4-(2-oxa-6-azaspiro[3.3]heptane-6-carbonyl)piperidin-1-yl)-5-fluoropyridin-3-yl)-2-amino-6-fluoropyrazolo[1,5-a]pyrimidine-3-carboxamide], with “+++ (Cisplatin sensitization value of <0.02 μM)”; and `CN1CC2(CCN(c3ccncc3NC(=O)c3c(N)nn4cc(F)cnc34)CC2)CC1=O` [I-N-236, 2-amino-6-fluoro-N-(4-(2-methyl-3-oxo-2,8-diazaspiro[4.5]decan-8-yl)pyridin-3-yl)pyrazolo[1,5-a]pyrimidine-3-carboxamide], with “+++ (Cisplatin sensitization value of <0.02 μM)”; and `Nc1nn2cc(Cl)cnc2c1C(=O)Nc1cncc(F)c1N1CCC(C(=O)N2CCN3CCC2CC3)CC1` [I-G-87, N-(4-(4-(1,4-diazabicyclo[3.2.2]nonane-4-carbonyl)piperidin-1-yl)-5-fluoropyridin-3-yl)-2-amino-6-chloropyrazolo[1,5-a]pyrimidine-3-carboxamide], with “+++ (Cisplatin sensitization value of <0.02 μM)”.

For `CN1CCN(c2ccncc2NC(=O)c2c(N)nn3cc(C(C)(C)C#N)cnc23)CC1` [I-N-76, 2-amino-6-(2-cyanopropan-2-yl)-N-(4-(4-methylpiperazin-1-yl)pyridin-3-yl)pyrazolo[1,5-a]pyrimidine-3-carboxamide], the “Cisplatin Sensitization Assay” value is listed as “+++ (Cisplatin sensitization value of <0.02 μM)”. Take `Cc1cncc(NC(=O)c2c(N)nn3cc(F)cnc23)c1N1CCN(C2COC2)CC1` [I-N-16, 2-amino-6-fluoro-N-(5-methyl-4-(4-(oxetan-3-yl)piperazin-1-yl)pyridin-3-yl)pyrazolo[1,5-a]pyrimidine-3-carboxamide]: the “Cisplatin Sensitization Assay” value is given as “+++ (Cisplatin sensitization value of <0.02 μM)”. With `Nc1nn2cc(F)cnc2c1C(=O)Nc1cncc(F)c1N1CCC(N2CCOCC2)CC1` [I-N-189, 2-amino-6-fluoro-N-(5-fluoro-4-(4-morpholinopiperidin-1-yl)pyridin-3-yl)pyrazolo[1,5-a]pyrimidine-3-carboxamide], the “Cisplatin Sensitization Assay” value was “+++ (Cisplatin sensitization value of <0.02 μM)”. As to `CN(C)CC1(O)CCN(c2ccncc2NC(=O)c2c(N)nn3cc(Cl)cnc23)CC1` [I-N-36, 2-amino-6-chloro-N-(4-(4-((dimethylamino)methyl)-4-hydroxypiperidin-1-yl)pyridin-3-yl)pyrazolo[1,5-a]pyrimidine-3-carboxamide], the “Cisplatin Sensitization Assay” value is “++ (Cisplatin sensitization value>0.02 μM but <0.2 μM)”. The result for `CN1CC(OC2CCN(c3ccncc3NC(=O)c3c(N)nn4cc(F)cnc34)CC2)C1` [I-N-164, 2-amino-6-fluoro-N-(4-(4-((1-methylazetidin-3-yl)oxy)piperidin-1-yl)pyridin-3-yl)pyrazolo[1,5-a]pyrimidine-3-carboxamide] reads “+++ (Cisplatin sensitization value of <0.02 μM)”; that for `CS(=O)(=O)c1ccc(-c2ccncc2NC(=O)c2c(N)nn3cc(F)cnc23)cc1` [I-C-61, 2-amino-6-fluoro-N-(4-(4-(methylsulfonyl)phenyl)pyridin-3-yl)pyrazolo[1,5-a]pyrimidine-3-carboxamide], “+++ (Cisplatin sensitization value of <0.02 μM)”.

On to `CN1CCC(c2ccncc2NC(=O)c2c(N)nn3cc(F)cnc23)CC1` [I-C-1, 2-amino-6-fluoro-N-(4-(1-methylpiperidin-4-yl)pyridin-3-yl)pyrazolo[1,5-a]pyrimidine-3-carboxamide], for which the “Cisplatin Sensitization Assay” value is reported as “++ (Cisplatin sensitization value>0.02 μM but <0.2 μM)”.

The values are drawn from patent US11370798B2 (Vertex Pharmaceuticals Incorporated, priority 2012, dated 2022).
